The nature of data set [1]: Drug uptake in human HeLa cells assessed as red signals at 10 uM incubated for 3 hrs by fluorescence microscopy. The data set is classed as ADME, cell-based.
The subject of a further data set is HeLa. Description: Induction of apoptosis in human HeLa cells assessed as green signal at 10 uM relative to control. It counts as functional.
Data set [2] in a line: Proteolytic stability assessed as proteinase K (unknown origin)-mediated drug degradation measured for 15 mins by Tricine-SDS-PAGE analysis. It counts as ADME. Particulars: read-out: Drug degradation; call rule not given here.

Consider `CC[C@H](C)[C@@H]1NC(=O)[C@@H](NC(=O)[C@H](CCCNC(=N)N)NC(=O)[C@H](CC(C)C)NC(=O)[C@H](CCC(=O)O)NC(=O)[C@H](CCC(N)=O)NC(=O)[C@H](C)NC(=O)[C@@H](NC(=O)[C@H](Cc2c[nH]c3ccccc23)NC(=O)[C@@H](NC(=O)[C@@H](N)CCC(=O)O)[C@@H](C)CC)[C@@H](C)CC)CSCc2ccccc2CSC[C@@H](C(=O)N[C@@H](Cc2ccccc2)C(=O)N[C@@H](CC(N)=O)C(=O)N[C@@H](C)C(=O)N[C@@H](Cc2ccc(O)cc2)C(=O)N[C@@H](Cc2ccc(O)cc2)C(=O)N[C@@H](C)C(=O)N[C@@H](CCCNC(=N)N)C(=O)O)NC(=O)[C@H](CC(=O)O)NC(=O)CNC1=O`, for which the Drug uptake result in data set [1] is recorded as “Not_active”. As for `CC[C@H](C)[C@H](NC(=O)[C@H](Cc1c[nH]c2ccccc12)NC(=O)[C@@H](NC(=O)[C@H](CCC(=O)O)NC(=O)[C@H](CCCNC(=N)N)NC(=O)[C@H](CCCNC(=N)N)NC(=O)[C@H](CCCNC(=N)N)NC(=O)[C@H](CCC(N)=O)NC(=O)[C@H](CCCNC(=N)N)NC(=O)[C@H](CCCNC(=N)N)NC(=O)[C@H](CCCCN)NC(=O)[C@H](CCCCN)NC(=O)[C@@H](N)CCCNC(=N)N)[C@@H](C)CC)C(=O)N[C@@H](C)C(=O)N[C@@H](CCC(N)=O)C(=O)N[C@@H](CCC(=O)O)C(=O)N[C@@H](CC(C)C)C(=O)N[C@@H](CCCNC(=N)N)C(=O)N[C@@H]1CSCc2ccccc2CSC[C@H](C(=O)N[C@@H](Cc2ccccc2)C(=O)N[C@@H](CC(N)=O)C(=O)N[C@@H](C)C(=O)N[C@@H](Cc2ccc(O)cc2)C(=O)N[C@@H](Cc2ccc(O)cc2)C(=O)N[C@@H](C)C(=O)N[C@@H](CCCNC(=N)N)C(=O)O)NC(=O)[C@H](CC(=O)O)NC(=O)CNC(=O)[C@H]([C@@H](C)CC)NC1=O`, the Activity in the data set with HeLa is 9.3%. The same measure, in the same setting: with `CC[C@H](C)[C@H](NC(=O)[C@H](Cc1c[nH]c2ccccc12)NC(=O)[C@@H](NC(=O)[C@H](CCC(=O)O)NC(=O)[C@H](CCCNC(=N)N)NC(=O)[C@H](CCCNC(=N)N)NC(=O)[C@H](CCCNC(=N)N)NC(=O)[C@H](CCC(N)=O)NC(=O)[C@H](CCCNC(=N)N)NC(=O)[C@H](CCCNC(=N)N)NC(=O)[C@H](CCCCN)NC(=O)[C@H](CCCCN)NC(=O)[C@@H](N)CCCNC(=N)N)[C@@H](C)CC)C(=O)N[C@@H](C)C(=O)N[C@@H](CCC(N)=O)C(=O)N[C@@H](CCC(=O)O)C(=O)N[C@@H](CC(C)C)C(=O)N[C@@H](CCCNC(=N)N)C(=O)N[C@@H]1CSCc2ccccc2CSC[C@@H](C(=O)N[C@@H](Cc2ccccc2)C(=O)N[C@@H](CC(N)=O)C(=O)N[C@@H](C)C(=O)N[C@@H](Cc2ccc(O)cc2)C(=O)N[C@@H](Cc2ccc(O)cc2)C(=O)N[C@@H](C)C(=O)N[C@@H](CCCNC(=N)N)C(=O)O)NC(=O)[C@H](CC(=O)O)NC(=O)CNC(=O)[C@H]([C@@H](C)CC)NC1=O` the figure was 14%; with `CC[C@H](C)[C@@H]1NC(=O)[C@@H](NC(=O)[C@H](CCCNC(=N)N)NC(=O)[C@H](CC(C)C)NC(=O)[C@H](CCC(=O)O)NC(=O)[C@H](CCC(N)=O)NC(=O)[C@H](C)NC(=O)[C@@H](NC(=O)[C@H](Cc2c[nH]c3ccccc23)NC(=O)[C@@H](NC(=O)[C@@H](N)CCC(=O)O)[C@@H](C)CC)[C@@H](C)CC)CSCc2ccccc2CSC[C@H](C(=O)N[C@@H](Cc2ccccc2)C(=O)N[C@@H](CC(N)=O)C(=O)N[C@@H](C)C(=O)N[C@@H](Cc2ccc(O)cc2)C(=O)N[C@@H](Cc2ccc(O)cc2)C(=O)N[C@@H](C)C(=O)N[C@@H](CCCNC(=N)N)C(=O)O)NC(=O)[C@H](CC(=O)O)NC(=O)CNC1=O`, 52%.

For the molecule H-RKKRRQRRREIWIAQELRRIGDEFNAYYAR-OH, the Drug uptake entry in data set [1] is “Active”. Moreover, the Activity in the data set with HeLa is 37%. For the same molecule, the metabolised at 0.25 h in data set [2] worked out at 95%. `CC[C@H](C)[C@@H]1NC(=O)[C@@H](NC(=O)[C@H](CCCNC(=N)N)NC(=O)[C@H](CC(C)C)NC(=O)[C@H](CCC(=O)O)NC(=O)[C@H](CCC(N)=O)NC(=O)[C@H](C)NC(=O)[C@@H](NC(=O)[C@H](Cc2c[nH]c3ccccc23)NC(=O)[C@@H](NC(=O)[C@H](CCC(=O)O)NC(=O)[C@H](CCCNC(=N)N)NC(=O)[C@H](CCCNC(=N)N)NC(=O)[C@H](CCCNC(=N)N)NC(=O)[C@H](CCC(N)=O)NC(=O)[C@H](CCCNC(=N)N)NC(=O)[C@H](CCCNC(=N)N)NC(=O)[C@H](CCCCN)NC(=O)[C@H](CCCCN)NC(=O)[C@@H](N)CCCNC(=N)N)[C@@H](C)CC)[C@@H](C)CC)CSCc2ccccc2CSC[C@@H](C(=O)N[C@@H](Cc2ccccc2)C(=O)N[C@@H](CC(N)=O)C(=O)N[C@@H](C)C(=O)N[C@@H](Cc2ccc(O)cc2)C(=O)N[C@@H](Cc2ccc(O)cc2)C(=O)N[C@@H](C)C(=O)N[C@@H](CCCNC(=N)N)C(=O)O)NC(=O)[C@H](CC(=O)O)NC(=O)CNC1=O`: the Drug uptake entry in data set [1] was “Active”. Further, the Activity in the data set with HeLa worked out at 94%. Besides, the metabolised at 0.25 h in data set [2] was determined as 68%.

The record behind these values is ChEMBL document CHEMBL6092123, “Configuration of two cysteine residues in a ring within a stapled Bim peptide affects the secondary structure and apoptotic activity” (Bioorg Med Chem Lett, 2024).
